Laboratory results as given in US20160361314A1, “COMBINATION OF AN ALK INHIBITOR AND A CDK INHIBITOR FOR THE TREATMENT OF CELL PROLIFERATIVE DISEASES” (NOVARTIS AG, priority 2013, published 2016).
Where two headings read alike, the source gives them in different places.

Legend:
[1] = test system: human neuroblastoma SH-SY5Y (F1174L ALK mutation) xenografts; conditions: CB17 SCID mice; A1 50 mg/kg, B 250 mg/kg reduced to 187.5 mg/kg on day 5; p.o. gavage
Description: Enhancement of efficacy studies were conducted in vivo on CB17 SCID mice against human neuroblastoma SH-SY5Y (bearing an F1174L ALK mutation) xenografts.
CB17 scid female mice (Taconic Farms) were used to propagate subcutaneously implanted neuroblastoma tumors. Tumor diameters were measured twice per week with electronic calipers, and tumor volumes were calculated with the spheroid formula, (p/6)×d3, where d represents mean diameter. […] Mice were euthanized when tumor volume exceeded 3000 mm^3 or at the study conclusion at 7 weeks. A mixed-effects linear model was used to assess tumor volume over time between treatment and vehicle groups, controlling for tumor size at enrollment. Event-free survival probabilities were estimated using the Kaplan-Meier method and survival curves were compared using the log-rank test (SAS 9.3 and Stata 12.1). An event was defined as time to tumor volume ≧3000 mm^3, and tumor volumes after week 7 were censored. Mice were maintained under protocols and conditions approved by our institutional animal care and use committee.

[2] = test system: NB1643 neuroblastoma cells (R1275Q); test: xCELLigence in vitro growth inhibition and Chou-Talalay combination index; conditions: for IC50: Homo sapiens; for Dose Reduction Index (DRI, from calculations) / Drug alone dose giving Fa (calculated) / Dose Reduction Index (DRI) / Drug alone dose giving Fa: NB1643; for Dose Reduction Index (DRI, from calculations) / Drug alone dose giving Fa (calculated): Table 7; for Dose Reduction Index (DRI): A1 and B co-treatment
Description: The concentration dependence of the anti-proliferation effect for both combination partners, first alone and then in combination were measured using the xCELLigence system. CI for each of the treatments was computed by CalcuSyn v2 software (Biosoft, MO).
In vitro inhibitory activity was determined in five (5) neuroblastoma cell lines with a 96-well Real-Time Cell Electronic Sensing xCELLigence system (ACEA, San Diego, Calif.) which measures a “cell index”. Cell index is derived from alterations in electrical impedance as cells interact with the biocompatible microelectrode surface in each well to measure substrate adherent proliferation. […] After 24 hours, the plated cells were treated in triplicate with the test compound, each dose as indicated or with DMSO vehicle control. […] At 72 hours after drug exposure, the cell index was recorded.
The IC50 was calculated using GraphPad Prism 5.0 four parameter variable slope fitting. These values were used in dosing of the combination study which follows.
Drug combination effects and quantification of synergy were determined using the Chou-Talalay combination index method (Trends Pharmacol Sci 4, 450-454) and CalcuSyn v2 software (Biosoft, MO) in four neuroblastoma cell lines. Cells were plated and in vitro proliferation was measured using the xCELLigence system as described above.
The anti-proliferation potency of each individual agent was estimated by the median-effect dose, Dm. […] Fa=0 is determined based on DMSO control by the dose, and Fa=1 is a full response (no viable cells left) and. • Fu: fraction unaffected by dose where fu=1−fa.
The effect of combination drug effects was determined utilizing the combination index (CI) as defined by Chou according to the following equation:
where (Dx)1 and (Dx)2 are the concentrations of compounds D1 and D2 needed to produce a given level of anti-proliferative effect when used individually, whereas (D)1 and (O)2 are their concentrations that produce the same anti-proliferative effect when used in combination. The combination index is a quantitative measure of drug interaction defined as an additive effect (CI=1), antagonism (CI>1), or synergy (CI<1). Typically, a CI range, as used herein, is used to assess synergy. A combination index of 0.9-1.1 indicates additive interaction, values below 0.9 indicate synergism, and values over 1.1 indicate antagonism. The follow is a description of the CI ranges: • <0.1+++++ Very strong synergism • 0.1-0.3++++ Strong synergism • 0.3-0.7+++ Synergism • 0.7-0.85++ Moderate synergism • 0.85-0.90+ Slight synergism • 0.90-1.10± Nearly additive • 1.10-1.20− Slight antagonism • 1.20-1.45−− Moderate antagonism
The combination index was used to assess the Dose-Reduction Index (DRI) (Chou and Chou, 1988), where:
CI=(D)1/(Dx)1+(D)2/Dx)2=1/(DRI)1+1/(DRI)2
The DRI estimates how much the dose of each drug can be reduced when synergistic drugs are given in combination, while still achieving the same effect size as each drug administered individually.

[3] = test system: SKNFI neuroblastoma cells (WT); test: xCELLigence in vitro growth inhibition (IC50); assay type: cell-based; conditions: Homo sapiens, SK-N-FI, 72 hours, single agent
Description: In vitro inhibitory activity was determined in five (5) neuroblastoma cell lines with a 96-well Real-Time Cell Electronic Sensing xCELLigence system (ACEA, San Diego, Calif.) which measures a “cell index”. Cell index is derived from alterations in electrical impedance as cells interact with the biocompatible microelectrode surface in each well to measure substrate adherent proliferation. Depending on the growth kinetics, the following cell densities were plated per well: NB1643: 20,000; SHSY5Y: 6,000; SKBE2C:10,000; NBEBC1: 11,000; NB1691: 30,000. After 24 hours, the plated cells were treated in triplicate with the test compound, each dose as indicated or with DMSO vehicle control. […] At 72 hours after drug exposure, the cell index was recorded.
The IC50 was calculated using GraphPad Prism 5.0 four parameter variable slope fitting.

[4] = test system: NB-1643 human neuroblastoma cells; test: Loewe additivity (CHALICE) synergy screen, CellTiter-Glo viability, 7x7 dose matrix; assay type: cell-based; conditions: NB-1643 (R1275Q), Table 2; for Max Combo Effect: in % (unit assumed)
Description: The synergistic interaction of drug combinations were assessed based on the Loewe Additivity Model using Chalice software [CombinatoRx, Cambridge Mass.]). […] 27:659-66. The software compares the response (% inhibition or % reduction of cell viability) of drug treatment from a combination of two agents to the response of the agents acting alone, against the drug-with-itself dose-additive reference model (the Loewe Additivity Model). Deviations from dose additives can be assessed numerically with a “synergy score” which quantifies the overall strength of combination effect. A synergy score >0 indicates a synergistic combination. In order to ensure only strongly synergistic combinations were selected, the acceptance criteria were set at a higher level. Strongly synergistic combinations were defined as having both a synergy score >2, a synergy score that is twice as large as the background (non-synergy) model would predict, and a maximum efficacy of >100, a value equivalent to stasis, as determined from the growth inhibition calculation.
After treatment, cell viabilty (quantity of viable cells) for each test mixtures were determined by the CellTiter-Glo® (CTG) luminescent cell viability assay (Promega) described in the Assay section, infra. […] The response to treatment (% reduction of cell viability) was analyzed using Chalice software [CombinatoRx, Cambridge Mass.]). Data evaluation and graph generation were performed using Microsoft Excel software and Chalice software.
The combinations were tested in duplicate using a 7×7 dose matrix block in 1536 well format with a cell proliferation readout as described in the Assay section infra.
All synergy calculations were performed using CHALICE software package from Zalicus and potential synergistic interactions between compound combinations were assessed using the Excess Inhibition 2D matrix according to the Loewe additivity model and were reported as synergy score (Table 10) (Lehar et al). Strongly synergistic combination were identified as having both (1) a synergy score greater than 2, a synergy score that is twice as large as the background (non-synergy) model would predict, and (2) a maximum efficacy of >100, a value roughly equivalent to stasis, as determined from the growth inhibition calculation.
Cell viability were determined by measuring cellular ATP content using the CellTiter-Glo® (CTG) luminescent cell viability assay (Promega). […] Reduced and enhanced luminescent signal values (responses) were calculated relative to untreated (control) cells, and the calculated signal value proportional to the cell viability.
Synergistic combinations were identified based on the Loewe Addivity Model. […]

[5] = test system: NB1691 neuroblastoma cells (WT); test: xCELLigence in vitro growth inhibition and Chou-Talalay combination index; assay type: cell-based; conditions: Homo sapiens
[6] = test system: NBEBC1 neuroblastoma cells (WT); test: as above; assay type: cell-based; conditions: Homo sapiens, Neuroblastoma cell, single agent
[7] = NB-1643, read-out: Dm (median-effect dose)
[8] = Fa 0.51, Table 6, from experimental values
[9] = Fa 0.75, Table 6, from experimental values
[10] = Fa 0.83, Table 6, from experimental values
[11] = Fa 0.9, first of two Fa 0.9 lines, Table 6
[12] = Fa 0.9, second of two Fa 0.9 lines, Table 6
[13] = NB-1691, 72 hours, single agent, read-out: IC50
[14] = NB-1691, single agent, read-out: Dm (median-effect dose)
[15] = read-out: Dm (median-effect dose)

Cc1cc(Nc2ncc(Cl)c(Nc3ccccc3S(=O)(=O)C(C)C)n2)c(OC(C)C)cc1C1CCNCC1 [Compound A1, 5-chloro-N2-(2-isopropoxy-5-methyl-4-(piperidin-4-yl)phenyl)-N4-[2-(propane-2-sulfonyl)-phenyl]-pyrimidine-2,4-diamine]
Survival of the mice / deaths [1]: euthanized due to the size of their tumor | Tumor volume / tumor growth [1]: only a slight tumor growth delay compared to vehicle control | IC50 ([2]; NB-1643, 72 h): 0.222 µM | IC50 [2, 7]: 0.173 µM | Dose Reduction Index (DRI, from calculations) ([2]; Fa 0.020): 3.099 | Drug alone dose giving Fa (calculated) ([2]; Fa 0.020): 0.0007501 µM | Dose Reduction Index (DRI, from calculations) ([2]; Fa 0.050): 3.455 | Drug alone dose giving Fa (calculated) ([2]; Fa 0.050): 0.0028193 µM | Dose Reduction Index (DRI, from calculations) ([2]; Fa 0.100): 3.764 | Drug alone dose giving Fa (calculated) ([2]; Fa 0.100): 0.0080106 µM | Dose Reduction Index (DRI, from calculations) ([2]; Fa 0.150): 3.969 | Drug alone dose giving Fa (calculated) ([2]; Fa 0.150): 0.015292 µM | Dose Reduction Index (DRI, from calculations) ([2]; Fa 0.200): 4.130 | Drug alone dose giving Fa (calculated) ([2]; Fa 0.200): 0.0248814 µM | Dose Reduction Index (DRI, from calculations) ([2]; Fa 0.250): 4.269 | Drug alone dose giving Fa (calculated) ([2]; Fa 0.250): 0.0371953 µM | Dose Reduction Index (DRI, from calculations) ([2]; Fa 0.300): 4.394 | Drug alone dose giving Fa (calculated) ([2]; Fa 0.300): 0.0528478 µM | Dose Reduction Index (DRI, from calculations) ([2]; Fa 0.350): 4.510 | Drug alone dose giving Fa (calculated) ([2]; Fa 0.350): 0.0727063 µM | Dose Reduction Index (DRI, from calculations) ([2]; Fa 0.400): 4.622 | Drug alone dose giving Fa (calculated) ([2]; Fa 0.400): 0.0979951 µM | Dose Reduction Index (DRI, from calculations) ([2]; Fa 0.450): 4.732 | Drug alone dose giving Fa (calculated) ([2]; Fa 0.450): 0.130469 µM | Dose Reduction Index (DRI, from calculations) ([2]; Fa 0.500): 4.842 | Drug alone dose giving Fa (calculated) ([2]; Fa 0.500): 0.1727061 µM | Dose Reduction Index (DRI) [2, 8]: 3.321 | Drug alone dose giving Fa [2, 8]: 0.1826374 µM | Dose Reduction Index (DRI, from calculations) ([2]; Fa 0.550): 4.954 | Drug alone dose giving Fa (calculated) ([2]; Fa 0.550): 0.2286167 µM | Dose Reduction Index (DRI, from calculations) ([2]; Fa 0.600): 5.072 | Drug alone dose giving Fa (calculated) ([2]; Fa 0.600): 0.3043766 µM | Dose Reduction Index (DRI, from calculations) ([2]; Fa 0.650): 5.198 | Drug alone dose giving Fa (calculated) ([2]; Fa 0.650): 0.4102451 µM | Dose Reduction Index (DRI, from calculations) ([2]; Fa 0.700): 5.336 | Drug alone dose giving Fa (calculated) ([2]; Fa 0.700): 0.564402 µM | Dose Reduction Index (DRI) [2, 9]: 7.224 | Drug alone dose giving Fa [2, 9]: 0.8019141 µM | Dose Reduction Index (DRI, from calculations) ([2]; Fa 0.750): 5.492 | Drug alone dose giving Fa (calculated) ([2]; Fa 0.750): 0.8019141 µM | Dose Reduction Index (DRI, from calculations) ([2]; Fa 0.800): 5.676 | Drug alone dose giving Fa (calculated) ([2]; Fa 0.800): 1.1987842 µM | Dose Reduction Index (DRI) [2, 10]: 7.135 | Drug alone dose giving Fa [2, 10]: 1.5839055 µM | Dose Reduction Index (DRI, from calculations) ([2]; Fa 0.850): 5.907 | Drug alone dose giving Fa (calculated) ([2]; Fa 0.850): 1.9505238 µM | Dose Reduction Index (DRI) [2, 11]: 8.386 | Drug alone dose giving Fa [2, 11]: 3.7234705 µM | Dose Reduction Index (DRI) [2, 12]: 4.193 | Drug alone dose giving Fa [2, 12]: 3.7234705 µM | Dose Reduction Index (DRI, from calculations) ([2]; Fa 0.900): 6.229 | Drug alone dose giving Fa (calculated) ([2]; Fa 0.900): 3.7234705 µM | Dose Reduction Index (DRI, from calculations) ([2]; Fa 0.950): 6.786 | Drug alone dose giving Fa (calculated) ([2]; Fa 0.950): 10.58 µM | Dose Reduction Index (DRI, from calculations) ([2]; Fa 0.990): 8.200 | Drug alone dose giving Fa (calculated) ([2]; Fa 0.990): 106.3 µM | IC50 [3]: 3.48 µM | Synergy score (Mean) [4]: 1.231 | Max Combo Effect [4]: 151.1 | IC50 [5, 13]: 1.93 µM | IC50 [5, 14]: 0.762 µM | IC50 ([6]; 72 hours, read-out: IC50): 1.92 µM | IC50 [6, 15]: 1.66 µM

CN(C)C(=O)c1cc2cnc(Nc3ccc(N4CCNCC4)cn3)nc2n1C1CCCC1 [Compound B, 7-cyclopentyl-N,N-dimethyl-2-((5-(piperazin-1-yl)pyridin-2-yl)amino)-7H-pyrrolo[2,3-d]pyrimidine-6-carboxamide]
Survival of the mice / deaths [1]: one of the mice died on day 14 | Tumor volume / tumor growth [1]: slower tumor growth | IC50 ([2]; NB-1643, 72 h): 0.75 µM | IC50 [2, 7]: 0.788 µM | Drug alone dose giving Fa (calculated) ([2]; Fa 0.020): 0.0013507 µM | Drug alone dose giving Fa (calculated) ([2]; Fa 0.050): 0.0063668 µM | Drug alone dose giving Fa (calculated) ([2]; Fa 0.100): 0.021628 µM | Drug alone dose giving Fa (calculated) ([2]; Fa 0.150): 0.0461139 µM | Drug alone dose giving Fa (calculated) ([2]; Fa 0.200): 0.0815448 µM | Drug alone dose giving Fa (calculated) ([2]; Fa 0.250): 0.1305781 µM | Drug alone dose giving Fa (calculated) ([2]; Fa 0.300): 0.1970133 µM | Drug alone dose giving Fa (calculated) ([2]; Fa 0.350): 0.2862422 µM | Drug alone dose giving Fa (calculated) ([2]; Fa 0.400): 0.4060079 µM | Drug alone dose giving Fa (calculated) ([2]; Fa 0.450): 0.5676688 µM | Drug alone dose giving Fa (calculated) ([2]; Fa 0.500): 0.78836 µM | Drug alone dose giving Fa [2, 8]: 0.8417031 µM | Drug alone dose giving Fa (calculated) ([2]; Fa 0.550): 1.0948487 µM | Drug alone dose giving Fa (calculated) ([2]; Fa 0.600): 1.5307866 µM | Drug alone dose giving Fa (calculated) ([2]; Fa 0.650): 2.1712783 µM | Drug alone dose giving Fa (calculated) ([2]; Fa 0.700): 3.1546674 µM | Drug alone dose giving Fa [2, 9]: 4.7596923 µM | Drug alone dose giving Fa (calculated) ([2]; Fa 0.750): 4.7596923 µM | Drug alone dose giving Fa (calculated) ([2]; Fa 0.800): 7.6217203 µM | Drug alone dose giving Fa [2, 10]: 10.56 µM | Drug alone dose giving Fa (calculated) ([2]; Fa 0.850): 13.48 µM | Drug alone dose giving Fa [2, 11]: 28.74 µM | Drug alone dose giving Fa [2, 12]: 28.74 µM | Drug alone dose giving Fa (calculated) ([2]; Fa 0.900): 28.74 µM | Drug alone dose giving Fa (calculated) ([2]; Fa 0.950): 97.62 µM | Drug alone dose giving Fa (calculated) ([2]; Fa 0.990): 1455 µM | IC50 ([3]; unit in cell): > 6 µM | Synergy score (Mean) [4]: 0.929 | Max Combo Effect [4]: 76.4 | IC50 [5, 13]: 0.315 µM | IC50 [5, 14]: 2.65 µM | IC50 ([6]; 72 hours, read-out: IC50): 0.328 µM | IC50 [6, 15]: 1.26 µM
